Measurements from patent US12060329B1, “6′-(2-bromophenyl)-2′-ethoxy-3,4′-bipyridine-3′-carbonitrile as an antioxidant compound” (KING FAISAL UNIVERSITY, priority 2023, dated 2024).

Assay: DPPH radical scavenging antioxidant test
Type: biochemical
Settings: 517 nm; for Inhibition (radical scavenging inhibition): compound 3 μM in ethanol, 0.2 mL DPPH (0.75 mM), 30 minutes in the dark
Protocol: The antioxidant activity of 6′-(2-bromophenyl)-2′-ethoxy-3,4′-bipyridine-3′-carbonitrile was investigated by 2,2-diphenyl-1-picrylhydrazyl (DPPH) in vitro tests that employ vitamin C as the positive control.
The antioxidant properties of the 6′-(2-bromophenyl)-2′-ethoxy-3,4′-bipyridine-3′-carbonitrile compound were studied by adding 0.2 mL DPPH (0.75 mM)) to 6′-(2-bromophenyl)-2′-ethoxy-3,4′-bipyridine-3′-carbonitrile (3 μM) (4) in ethanol. After 30 minutes of incubation in the dark, the absorbance was read against a blank at 517 nm. Ascorbic acid (vitamin C) was used as standard antioxidants (positive control). A blank sample was prepared by 0.2 mL of DPPH in 3 mL ethanol. A negative control sample was run using ethanol instead of the sample. The radical scavenging inhibition was calculated using the following equation: […]
The antioxidant activity for the synthesized compound is listed in Table 1, using Vitamin C as a reference.

SMILES | Inhibition (radical scavenging inhibition) [%] | antioxidant potential to vanish the DPPH radical colors (in words) (DPPH in vitro test, vitamin C as positive control)
O=C1O[C@H]([C@@H](O)CO)C(O)=C1O [vit c, Ascorbic acid, reference compound] | 74 | –
CCOc1nc(-c2ccccc2Br)cc(-c2cccnc2)c1C#N [Product 4, 6′-(2-bromophenyl)-2′-ethoxy-3,4′-bipyridine-3′-carbonitrile] | 50 | high potential as an antioxidant compared to vitamin C
